From ChEMBL document CHEMBL1201862, “PubChem BioAssay data set” (2004) come the findings set out here.

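Cells were grown in 96-well plates and exposed to each compound for 48 hours at five concentrations; endpoints were interpolated linearly between bracketing concentrations, or set to the highest concentration if not reached. GI50 = concentration required for 50% inhibition of growth.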 Calls of active or inactive are those of the source. Rule as the data show it: active = GI50 up to about 1.1 µM and inactive = higher. Some results are limits rather than exact numbers.

Test systems include DMS-273; KM-20L2; LXFL 529; M19-MEL; XF498; DLD-1; HOP-18; RXF 631; SNB-78.
Holding throughout (test): inhibition of tumour cell growth, NCI panel, 48 h

`Cc1cn(C2CC3C(COCN3O)O2)c(=O)[nH]c1=O` (centres undefined): the GI50 in the test with DMS-273, in the test on KM-20L2, with LXFL 529, in the test on M19-MEL and with XF498 was > 100 µM (inactive) in each case.

In the case of `Cc1ccc(C)c(N2C(=O)C(=O)C(c3nc4ccccc4o3)C(=O)C2=O)c1`, the GI50 in the test on DLD-1 was 22.9 µM (inactive); in the test with DMS-273, > 100 µM (inactive); with HOP-18 it was > 100 µM (inactive); in the test with KM-20L2, > 100 µM (inactive); in the test with LXFL 529 it was 48.9 µM (inactive); with M19-MEL, 59.2 µM (inactive). In addition, the GI50 with RXF 631 and in the test with SNB-78 was > 100 µM (inactive) throughout.

As for `COc1ccc2c(c1)c(=O)c1c(NCCCN(C)C)ccc3ncn2c31`, the GI50 in the test with DLD-1 was 1.14 µM (inactive); in the test on DMS-273, 1.07 µM (active); with HOP-18, 11.2 µM (inactive); in the test with KM-20L2 it was 1.12 µM (inactive); in the test on LXFL 529, 3.41 µM (inactive); in the test with M19-MEL, 9.08 µM (inactive). Further, the figures for the GI50 in the test on SNB-78 and in the test with XF498 were 7.48 µM (inactive) and 5.35 µM (inactive), respectively.

As for `CC1=CC(=O)CCC2(C)C1CC[C@@H]2OC=O` (some centres undefined), the GI50 with DLD-1 is > 100 µM (inactive); in the test with DMS-273, > 100 µM (inactive); with HOP-18, > 100 µM (inactive); in the test with KM-20L2, 82.2 µM (inactive); with LXFL 529, > 100 µM (inactive); with M19-MEL, > 100 µM (inactive). The GI50 with RXF 631, in the test on SNB-78 and in the test with XF498 was > 100 µM (inactive) in each case.

With `COc1cc2c(cc1OC)[C@@H](Nc1ccc(F)cc1)C1COC(=O)[C@@H]1C2c1cc(OC)c(O)c(OC)c1` (some centres undefined), the GI50 in the test on DLD-1 was 3.13 µM (inactive); in the test on DMS-273, 0.0832 µM (active); in the test with HOP-18 it was 5.35 µM (inactive); in the test with KM-20L2, 3.04 µM (inactive); in the test on LXFL 529 it was 19.6 µM (inactive); with M19-MEL, 5.08 µM (inactive). Also, the GI50 is 1.73 µM (inactive) in the test with RXF 631, > 20.4 µM (inactive) with SNB-78 and 3 µM (inactive) in the test on XF498.

For the compound `CNC(=O)OC1/C(C)=C\C(C)C(O)C(OC)CC(C)CC2=C(OC)C(=O)C=C(C2=O)N(C)C(=O)/C(C)=C/C=C\C1OC` (centres undefined), the GI50 in the test on DLD-1 is 1.96 µM (inactive); in the test on DMS-273, 3.31 µM (inactive); with HOP-18, 9.27 µM (inactive); with KM-20L2, 2.53 µM (inactive); in the test with LXFL 529 it was 4.86 µM (inactive); in the test on M19-MEL, 5 µM (inactive). Besides, the results for the GI50 in the test with RXF 631, with SNB-78 and in the test with XF498 were 15.1 µM (inactive), 7.21 µM (inactive) and 3.72 µM (inactive), respectively.

On to `COc1cccc2nc3cc(C)c(C)cc3nc12`, for which the GI50 is 79.1 µM (inactive) with DLD-1; > 100 µM (inactive) in the test with DMS-273; > 100 µM (inactive) in the test on HOP-18; > 100 µM (inactive) in the test on KM-20L2; > 100 µM (inactive) in the test with LXFL 529; > 100 µM (inactive) with M19-MEL. Further, the GI50 in the test on RXF 631, in the test with SNB-78 and in the test on XF498 was > 100 µM (inactive) in each case.

Regarding `CN(C)C(=O)Nc1c([N+](=O)[O-])cc(C(F)(F)F)cc1[N+](=O)[O-]`, the GI50 with DMS-273 was 43.8 µM (inactive); with KM-20L2, 26.5 µM (inactive); in the test with LXFL 529, 40.9 µM (inactive); in the test with SNB-78, 33.5 µM (inactive); in the test on XF498, 16.8 µM (inactive).

In the case of `Nc1nc2ncn(CC(O)COC(=O)c3ccccc3)c2c(=O)[nH]1` (centres undefined), the GI50 in the test on DLD-1, in the test on DMS-273, in the test on HOP-18, in the test with KM-20L2, in the test on LXFL 529 and in the test with M19-MEL was > 100 µM (inactive) in each case. Further, the GI50 is > 100 µM (inactive) in the test with RXF 631, 48.3 µM (inactive) with SNB-78 and > 100 µM (inactive) in the test on XF498.

`COc1ccc(-c2cc3ccccc3[nH]c2=O)cc1OC`: the GI50 in the test with DLD-1, with DMS-273, in the test with HOP-18, with KM-20L2, with LXFL 529 and with M19-MEL was > 100 µM (inactive) in each case. Also, the GI50 in the test with SNB-78 and with XF498 was > 100 µM (inactive) in each case.

As for `CCOC(=O)CN(Cc1ccccc1)Cc1c(C(=O)c2ccccc2)c2ccccc2n1C(=O)c1ccccc1`, the GI50 was > 100 µM (inactive) in the test on DLD-1; > 100 µM (inactive) with DMS-273; > 100 µM (inactive) in the test with KM-20L2; 8.57 µM (inactive) with LXFL 529; > 100 µM (inactive) in the test with M19-MEL; > 100 µM (inactive) in the test on SNB-78. In addition, the GI50 with XF498 was 73.1 µM (inactive).

On to `Cc1cccc(C2SCc3nc4ccccc4n32)c1` (centres undefined), for which the GI50 with DLD-1 is 25.2 µM (inactive); with HOP-18, < 0.01 µM (active); in the test with LXFL 529, 25.2 µM (inactive); with M19-MEL, 24 µM (inactive); in the test on SNB-78 it was 27.5 µM (inactive).

With `CS/C(c1ccccc1)=[N+](\[O-])Cc1ccccc1`, the GI50 with DLD-1, with HOP-18, in the test on KM-20L2, in the test on LXFL 529, in the test on M19-MEL and in the test on SNB-78 was > 100 µM (inactive) each time. Further, the GI50 with XF498 was > 100 µM (inactive).

In the case of `CC(=O)OC1C(O)C(C)OC(OC2C(OC(=O)C3CCC4C(C3)OC3(CC(OC(=O)/C=C/c5ccccc5)C(C)CO3)C43CO3)OC(C)C(O)C2OC(C)=O)C1O` (centres undefined), the GI50 in the test with DLD-1 was 0.38 µM (active); in the test on DMS-273, 0.0259 µM (active); with HOP-18, 0.0906 µM (active); with KM-20L2, 0.041 µM (active); in the test with M19-MEL, 0.0174 µM (active); in the test on SNB-78, 0.056 µM (active). The GI50 in the test on XF498 was 0.0357 µM (active).

With `CC1OC(OC2C(OC(=O)[C@]34CCC(C)(C)CC3C3=CCC5[C@@]6(C)C[C@H](O)[C@H](OC7OC(CO)C(O)C(O)C7N)[C@@](C)(C(=O)O)C6CC[C@@]5(C)C3(C)CC4)OCC(O)C2O)C(O)C(O)C1OC1OCC(O)C(O)C1O` (some centres undefined), the GI50 with DLD-1, in the test on DMS-273, in the test with HOP-18, in the test with KM-20L2, with M19-MEL and with SNB-78 was > 100 µM (inactive) each time.

Take `COc1cccc(NC(=O)C(C)(C)C)c1SSc1c(NC(=O)C(C)(C)C)cccc1OC`: the GI50 in the test with DLD-1 was > 43.7 µM (inactive); in the test on DMS-273, 96.8 µM (inactive); in the test with HOP-18, > 69.7 µM (inactive); in the test on KM-20L2, 98.4 µM (inactive); in the test with LXFL 529 it was 15.8 µM (inactive); in the test on M19-MEL, 35.2 µM (inactive). The GI50 was 22.3 µM (inactive) in the test with SNB-78 and 15.2 µM (inactive) with XF498.

Regarding `CCC1(Cl)C(=O)NC(=O)N(C2CC(O)C(CO)O2)C1N=[N+]=[N-]` (centres undefined), the GI50 with DLD-1, in the test with DMS-273, in the test with KM-20L2, in the test on LXFL 529, in the test on M19-MEL and in the test with RXF 631 was > 100 µM (inactive) in each case. Besides, the GI50 with SNB-78 and in the test with XF498 was > 100 µM (inactive) throughout.

As to `CC/C(CC(=O)CCC(=O)Nc1c(C)cccc1C)=N\NC(=O)NN`, the GI50 with DLD-1, in the test with HOP-18, in the test on KM-20L2, with LXFL 529, in the test with M19-MEL and in the test with RXF 631 was > 100 µM (inactive) in each case. The GI50 in the test on SNB-78 was > 100 µM (inactive).

Take `COc1ccc([C@H]2[C@@H]3CCc4ccccc4C3=NN2C(N)=S)cc1OC`: the GI50 was 53 µM (inactive) in the test on DLD-1; > 100 µM (inactive) in the test on HOP-18; 57.7 µM (inactive) with KM-20L2; 24.2 µM (inactive) in the test with LXFL 529; 34.3 µM (inactive) with M19-MEL; > 100 µM (inactive) in the test on SNB-78. In addition, the GI50 in the test with XF498 was > 100 µM (inactive).

For `COC(=O)CCC1CCc2c(OC)ccc(O)c2C1=O` (centres undefined), the GI50 in the test on DLD-1, with DMS-273, in the test with LXFL 529, with M19-MEL, in the test on RXF 631 and in the test with SNB-78 was > 100 µM (inactive) in each case.

With `CC(C)C(NCc1c2ccccc2[n+](C)c2ccccc12)C(=O)O` (centres undefined), the GI50 was 2.39 µM (inactive) with DLD-1; 3.25 µM (inactive) in the test with DMS-273; 5.78 µM (inactive) in the test with HOP-18; 2.78 µM (inactive) in the test with KM-20L2; 3.53 µM (inactive) in the test on LXFL 529; 7.33 µM (inactive) in the test with M19-MEL. For the same compound, the GI50 with RXF 631 is 4.74 µM (inactive); in the test with SNB-78 it was 5.73 µM (inactive); in the test with XF498 it was 4.99 µM (inactive).

`COc1cccc2c1C(=O)OC2c1cccc2ccccc12` (centres undefined): the GI50 in the test with DLD-1 was > 100 µM (inactive); in the test on DMS-273 it was > 100 µM (inactive); in the test on HOP-18, > 85.5 µM (inactive); in the test with KM-20L2, > 100 µM (inactive); in the test with LXFL 529, > 100 µM (inactive); in the test on M19-MEL, > 100 µM (inactive). Besides, the GI50 with SNB-78 is > 100 µM (inactive); in the test on XF498, 34.8 µM (inactive).
